For one assay, the target named is T1, SHBG (Homo sapiens, UniProt P04278).
T1 sequence (P04278 30-402): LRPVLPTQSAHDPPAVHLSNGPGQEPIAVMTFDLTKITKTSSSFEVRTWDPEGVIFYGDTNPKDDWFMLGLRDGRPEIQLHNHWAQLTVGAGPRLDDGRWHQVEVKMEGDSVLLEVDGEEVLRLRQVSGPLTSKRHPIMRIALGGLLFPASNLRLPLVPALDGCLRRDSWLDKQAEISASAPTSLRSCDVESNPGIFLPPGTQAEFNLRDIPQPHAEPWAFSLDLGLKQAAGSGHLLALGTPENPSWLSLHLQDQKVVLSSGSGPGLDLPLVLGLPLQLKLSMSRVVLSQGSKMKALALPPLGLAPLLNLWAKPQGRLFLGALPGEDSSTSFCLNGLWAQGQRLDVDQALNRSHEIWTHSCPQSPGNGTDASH
As to conditions: Z. Naturforsch, C. Biosc. 997,52,834-843; cited from earlier work.

The conditions of assay [1]: Japanese Pat No. JP02,101,011; cited from earlier work.
Assay [2] in a line: In vitro free radical scavenging antioxidant potency (DPPH). It is filed as biochemical. As to conditions: 500 μM DPPH in ethanol, tris-HCl buffer pH 7.4, 45 minutes in dark, absorbency at 517 nm, triplicate. As to the method:
Antioxidant activity of the compounds was tested for its capacity/potency to scavenge most widely used free radical, 1,1-diphenyl-2-picryl hyrazyl radical (DPPH). […] 200 μl of test compounds were reconstituted to 1 ml in tris-HCl buffer (pH 7.4). […] After incubation for 45 minutes in dark, the absorbency at 517 nm was recorder. Percent radical scavenging activity was calculated accordingly. All the readings were taken in triplicate.
(In general: The DPPH test is a chemical assay of radical scavenging.)

The conditions of assay [3]: Japanese Pat. No. JP0131J17; cited from earlier work.

The values below come from patent US6489514B1, “(-)-Secoisolariciresinol as an antioxidant obtained from a new natural source namely stereospermum personatum” (Council of Scientific and Industrial Research, priority 2001, dated 2002).

Turning to `COc1cc(CC(CO)C(CO)Cc2ccc(O)c(OC)c2)ccc1O` (single isomer, unassigned; (-)) [(−)-Secoisolariciresinol, 2,3Bis-[4-hydroxy-3-(methoxyphenyl)methyl]-1,4-butanediol], the “Activity: binding to SHBG” value at SHBG is reported as 3. Binding to SHBG. Also, in assay [1], the “Activity: cardiotonic” value is 2. Cardiotonic. Also, the “50% Radical scavenging concentration” value in assay [2] worked out at 13.72 µg/mL. The “Activity: antitumor” value in assay [3] was 1. Antitumor agent.

On to `Cc1c(C)c2c(c(C)c1O)CCC(C)(CCCC(C)CCCC(C)CCCC(C)C)O2` (stereo not drawn) [DL α- Tocopherol, reference compound], for which the “50% Radical scavenging concentration” value in assay [2] worked out at 47.80 µg/mL.
